Laboratory results taken from a melting point compilation (Tetko et al.; mined from patent text by program, amines drawn as free bases though some values may be those of a salt).

First: C=CCONC(CCC)=C1C(=O)C=C(C)OC1=O
Second: CCOc1c(Nc2cccnc2)c(=O)c1=O
The melting point of the first is lower: 52 to 54 °C for the first, 140 to 145 °C for the second.

First: O=C(O)C(=O)c1ccc(OCC(=O)N2CCOCC2)cc1
Second: COc1ccc(S(=O)(=O)N2CCC[C@H]2C(=O)NO)cc1
The melting point of the first is higher: 182 to 184 °C for the first, 164 to 166 °C for the second.

First: O=C(NC1CCN(CCc2cccc3ccccc23)CC1)c1ccccc1
Second: Cn1nc2ccccc2c1C(=O)NCC1CCN(CCc2ccc(F)cc2F)CC1
The melting point of the first is higher: 160 to 162 °C for the first, 122 to 126 °C for the second.

Compared with Cc1cc(Oc2ccc(S(C)(=O)=O)nc2)ccc1[N+](=O)[O-], CCn1c(C)nc2cc(S(C)(=O)=O)c(Cl)c([N+](=O)[O-])c21 is lower in melting point: 138 to 140 °C for the first, 75 to 79 °C for the second.

Compared with COC(=O)c1ccc2c(c1)S(=O)(=O)c1ccccc1O2, COc1ccc(C(=O)Nc2cccnc2)cc1NCc1cccs1 is lower in melting point: 160 °C for the first, 154 to 155 °C for the second.

First: Cc1cc(C#N)cc(C(=O)NC(C)C)c1NC(=O)c1cc(Br)nn1-c1ccccc1Cl
Second: Cc1ccc(C(=O)NC(C)C)c(Nc2ccc3cn[nH]c3c2)n1
The melting point of the first is lower: 145 to 149 °C for the first, 212 to 214 °C for the second.

Compared with O=c1[nH]nc(-c2ccc(C(F)(F)F)cc2)o1, CCC(Cc1ccc(OC)c(C(=O)NCc2ccc(C(F)(F)F)cc2)c1)C(=O)O (centres undefined) is lower in melting point: 214 to 216 °C for the first, 128 to 130 °C for the second.

First: CC(CCl)CCCC(C)C1CC=C2C3=C(CCC21C)C1(C)CCC(O)C(C)(C)C1CC3 (centres undefined)
Second: CCC1(CC)C(=O)N(C(C)(C)C)CC(C)(C)N1C(C)c1ccc(C(C)=O)cc1 (centres undefined)
The melting point of the first is higher: 145 to 146 °C for the first, 91 to 94 °C for the second.

Compared with O=C(O)Cc1cccc2ccoc12, O=C(O)CC1Cc2cccc3cccc1c23 (centres undefined) is higher in melting point: 115 to 118 °C for the first, 123 °C for the second.

First: CCOC(=O)c1cn(CC)c2nc(OC)c(F)cc2c1=O
Second: CCOC(=O)C=Cc1cc(-c2csc(-c3ccc(OCC)c(OCC)c3)n2)cc(C(=O)OCOC)c1OCOC
The melting point of the first is higher: 181 to 182 °C for the first, 94 to 96 °C for the second.

Compared with Nc1sc2c(c1C(=O)c1ccsc1)CCN(Cc1ccccc1)C2, OCC1CN(Cc2ccccc2)CCN1Cc1ccccc1 (centres undefined) is lower in melting point: 131 to 133 °C for the first, 77 °C for the second.

First: Cc1oc(-c2ccccc2)nc1C(=O)c1cc2cc(Br)ccc2o1
Second: c1ccc(-c2noc(-c3cc4c(cn3)[nH]c3ccccc34)n2)cc1
The melting point of the first is lower: 212 to 213 °C for the first, 279 to 283 °C for the second.

First: CCCCc1cc(OCc2ccc(-c3ccccc3C(=O)OC)cc2)c2ccccc2n1
Second: CN(CCOc1ccc(CON=C(C(=O)O)c2ccccc2)cc1)c1ccccn1
The melting point of the first is higher: 105 °C for the first, 93 to 94 °C for the second.

First: CC(=O)C(=Cc1ccc(O)c(O)c1)C(C)=O
Second: O=C(/C=C/c1ccc(O)c(OC(F)(F)F)c1)/C=C/c1ccc(O)c(OC(F)(F)F)c1
The melting point of the first is higher: 134 to 137 °C for the first, 103 to 105 °C for the second.

First: CCn1ncc2c(NCC3CCCCC3)c3cc(OC)ccc3nc21
Second: CCc1nn(C2CCCC2)c2cc(-c3cccs3)ccc12
The melting point of the first is higher: 235 to 237 °C for the first, 60 to 64 °C for the second.

First: Cc1cccc2nc(-c3ccccc3)n(C3CCC(=O)NC3=O)c(=O)c12 (centres undefined)
Second: O=CN1C(=O)NC(=O)C12C(=O)N(Cc1ccc(Cl)c(Cl)c1)c1ccccc12 (centres undefined)
The melting point of the first is higher: 298 to 300 °C for the first, 244 to 246 °C for the second.

Compared with COc1ccc(C[C@H]2CC[C@@H]3[C@@H](CCC(=O)N3Cc3ccccc3)C2)cc1, COc1ccc(S(=O)(=O)C2(C(=O)NO)CCN(CCCOc3ccccc3)CC2)cc1 is lower in melting point: 118 to 119 °C for the first, 101 °C for the second.

First: N#Cc1ccc(NC(=O)NC(=O)c2c(F)cccc2F)c(Cl)c1Cl
Second: Cc1ccc(NC(=N)Nc2ncccc2OCc2c(F)cccc2Cl)cc1
The melting point of the first is higher: 285 to 287 °C for the first, 136 to 138 °C for the second.

First: CN(C)NC(=O)c1cc(S(C)(=O)=O)c(Cl)cc1NCc1ccco1
Second: CCOc1cc(C)c(C(=O)N=C(N)N)cc1S(C)(=O)=O
The melting point of the first is lower: 90 to 104 °C for the first, 201 to 203 °C for the second.

Compared with N#Cc1ccc(-c2cccc(C=O)c2O)cc1, N#Cc1ccc(N(c2ccc(N)cc2)n2ccnc2)cc1 is higher in melting point: 120 to 121 °C for the first, 147 °C for the second.

First: COc1cc(OC)c(-c2cc3ccccc3[nH]2)cc1C=CC(=O)c1ccc(S(=O)(=O)NCC(=O)O)cc1
Second: Cc1ccc(S(=O)(=O)Oc2ccccc2NC(=O)c2cccc3[nH]ccc23)cc1
The melting point of the first is higher: 189 to 190 °C for the first, 135 °C for the second.

First: CC(c1ccc(Cl)cc1)N1CCNC1=NC#N (centres undefined)
Second: CC1CCN(S(=O)(=O)c2cc(C#N)ccc2Oc2cc(Cl)ccc2Cl)CC1
The melting point of the first is higher: 133 °C for the first, 127 to 130 °C for the second.

First: CON(C)Cc1nc2c(N)nc3ccccc3c2n1CC(C)(C)O
Second: CCN(CC)C(=O)CCc1nc(-c2ccccn2)nc2ccccc12
The melting point of the first is higher: 220 to 222 °C for the first, 130 °C for the second.

Compared with O=C(O)CCCC=Cc1nn(-c2ccccc2)c2c1CCC2, CN(C(=O)N1Cc2ncn(Cc3ccccc3)c2CC1C(=O)O)c1ccccc1 (centres undefined) is higher in melting point: 130 to 131 °C for the first, 220 to 222 °C for the second.

First: O=C1c2ccc(Cl)c3c(N4CCCC4)cc(Cl)c(c23)C(=O)N1O
Second: Cn1cc(C(=O)O)c(=O)c2c3cc(N4CCN(c5ccc(F)c(Cl)c5)CC4)c(Cl)c(F)c3ncc21
The melting point of the first is lower: 243 to 245 °C for the first, > 260 °C for the second.

Compared with Clc1ccc(OCC2COC(CBr)(c3ccc(Cl)cc3)O2)cc1 (centres undefined), COc1ccc(-n2nc(CC(C)(C)C(=O)O)cc2-c2ccc(Cl)cc2)cc1 is higher in melting point: 165 °C for the first, 172 to 174 °C for the second.

First: C=CC(=O)NC(=O)NCCS(=O)C=C (centres undefined)
Second: CSCCNC(=O)c1sc(-c2cccnc2)nc1Cl
The melting point of the first is higher: 109 to 110 °C for the first, 97 to 98 °C for the second.

First: C=C(c1ccccc1OC)c1ccccc1OC
Second: COc1cc(Nc2nccc(-c3cccc(OCCO)c3)n2)cc(OC)c1OC
The melting point of the first is higher: 88 to 90 °C for the first, 70 °C for the second.

Compared with Cc1cc(-c2cc(=O)c3cccnc3o2)ccc1O, Cc1cccc(Sc2c(O)c3ccc(Cl)cc3[nH]c2=O)c1 is lower in melting point: 300 to 302 °C for the first, 234 to 236 °C for the second.

Compared with CC(C)(C)c1cn2cccc(C=O)c2n1, Cc1cnc(N2CCN(C(=O)OC(C)(C)C)CC2)c2ccoc12 is higher in melting point: 60 to 62 °C for the first, 108 °C for the second.

Going from COc1ccc2nccc(NC(=O)C3CCN(CCc4cnc5ccccc5n4)CC3)c2n1 to COC(=O)C(c1ccccc1)C1CCN(c2ccc(N)cc2)CC1 (centres undefined), the melting point falls from 170 °C to 125 °C.

First: COc1ccc(-c2coc3ccc(-c4nnc(SCc5cccc(C(F)(F)F)c5)o4)cc23)cc1
Second: Cn1c(Oc2cccc(C(F)(F)F)c2)nc2c(-c3cccc(C(=O)NCCO)c3)cccc21
The melting point of the first is lower: 119 to 120 °C for the first, 139 to 140 °C for the second.

First: COC(=O)c1sccc1NC(=O)c1ccccc1SSc1ccccc1C(=O)Nc1ccsc1C(=O)OC
Second: CN(CC(=O)C(Cc1ccccc1)NC(=O)c1ccccc1)C(=O)OC(Cc1ccccc1)C(=O)O (centres undefined)
The melting point of the first is higher: 250 to 252 °C for the first, 52 to 60 °C for the second.

First: Cc1cccc(-c2n[nH]cc2-c2ccc(F)c(-c3ccc(S(C)(=O)=O)cc3)c2)n1
Second: CC(C)CCOc1c(-c2ccc(S(N)(=O)=O)cc2)cnn(-c2ccc(F)c(F)c2)c1=O
The melting point of the first is lower: 100 to 102 °C for the first, 149 to 151 °C for the second.

Compared with Cc1ccn(-c2ccc(-c3nc4cccnc4n3-c3ccc(CCNCC(O)COc4ccc(O)cc4)cc3)c(Cl)c2)n1 (centres undefined), Nc1ncnc2sc(Cc3ccncc3)c(-c3ccc(NC(=O)Nc4cccc(C(F)(F)F)c4)cc3)c12 is higher in melting point: 87 to 89 °C for the first, 162 to 166 °C for the second.

First: O=C([C@@H]1O[C@H]1c1ccccc1)N(CC1CC1)[C@@H]1CCCC[C@H]1O
Second: O=C1NCCN1C1CCN(CCC2CS(=O)c3ccccc3O2)CC1 (centres undefined)
The melting point of the first is lower: 110 to 120 °C for the first, 145 °C for the second.

First: CN(C)C(=O)n1c(CN2CCN(c3ccccn3)CC2)nc2ccccc21
Second: CCN(CC)Cc1nnc2n1-c1ccc(Cl)cc1C(c1ccccc1)=NC2
The melting point of the first is higher: 174 to 176 °C for the first, 130 to 132 °C for the second.

Compared with COC(=O)CCc1cc2cc(Cl)ccc2n1S(=O)(=O)c1cc(OC)ccc1OC, COc1ccc(CCc2ccncc2)c2cc(C#N)nn12 is higher in melting point: 120 to 124 °C for the first, 191 to 192 °C for the second.

First: C[C@@H]1CCCN1CCCOc1ccc(-c2ccc(=O)[nH]n2)cn1
Second: Cc1ccc(S(=O)(=O)Oc2c(Cl)cc(C3=NNC(=O)CC3)cc2Cl)cc1
The melting point of the first is lower: 178 to 181 °C for the first, 208 to 209 °C for the second.

First: Cc1nn(C)c(O)c1C(=O)c1c(Cl)cccc1Cl
Second: NC(=O)C(OC(=O)c1ccccc1Cl)(C(N)=O)c1ccc(Cl)c(Cl)c1
The melting point of the first is higher: 250 °C for the first, 220 °C for the second.

Compared with CC(=NO)[C@H]1C[C@H](C(=O)OC(C)(C)C)N(C(=O)CNC(=O)Nc2cccc(C(=O)O)c2)[C@@H]1c1ccccc1 (racemic), CC(C)(C)OC(=O)NC1CCC(CON2C(=O)c3ccccc3C2=O)C1 (centres undefined) is lower in melting point: 180 °C for the first, 162 to 163 °C for the second.

Compared with COCc1noc(-c2ncn3c2CN(C)C(=O)c2cc(F)ccc2-3)n1, N#Cc1cnc2cc(F)ccc2c1O is higher in melting point: 192 to 194 °C for the first, > 250 °C for the second.

First: CCOC(=O)C1=C(C)NC(CC)=C(C(=O)OCC)C1c1cc([N+](=O)[O-])ccc1OCCCCCl (centres undefined)
Second: CCOC(=O)C(C#N)=Cc1ccc(OC)c(OC2CCCC2)c1
The melting point of the first is higher: 147 to 149 °C for the first, 109 to 110 °C for the second.

First: CC(=O)c1ccsc1S(N)(=O)=O
Second: CCN(CC)C(=O)n1cnc(S(=O)(=O)CC2CCCCO2)n1 (centres undefined)
The melting point of the first is higher: 193 to 196 °C for the first, 122 °C for the second.

First: O=C(Cc1c(-c2ccccc2)c2cc(CN3CCOCC3)c(Cl)cc2oc1=O)Nc1ccc(Cl)cc1C(F)(F)F
Second: NCC1COc2cc(Cl)cc(-c3ccc(C(F)(F)F)cc3C(F)(F)F)c2N1 (centres undefined)
The melting point of the first is higher: 205 to 207 °C for the first, 98 °C for the second.

Compared with O=C(Oc1ccc(F)cc1)[C@H]1CC[C@H](C(F)(F)C(F)(F)C(F)(F)C(F)(F)C(F)(F)C(F)(F)C(F)(F)F)CC1, c1ccc(C2=NOC3(CCNCC3)C2)cc1 is higher in melting point: 93.6 °C for the first, 115 °C for the second.

First: COc1ccc(C(=O)O)cc1C#CCN(C)C
Second: COC(=O)Nc1cc(N2CC=CCC2)nc2nc(=O)on12
The melting point of the first is lower: 167 to 170 °C for the first, 213 to 214 °C for the second.

First: N=C(NO)c1ccc2[nH]cc(CCN3C(=O)c4ccccc4C3=O)c2c1
Second: Cc1ccc(-c2ccc(CBr)cc2)cc1
The melting point of the first is higher: 168 to 170 °C for the first, 100 to 102 °C for the second.

Compared with CC1(C)Cc2c(cc(C(C)(C)C)c(O)c2C(C)(C)C)S1, ClCc1c(Cl)ccc2cc(Cl)cnc12 is higher in melting point: 79 °C for the first, 129 °C for the second.

In the case of N#Cc1ncn(C2OC(COC(=O)c3ccccc3)C(OC(=O)c3ccccc3)C2OC(=O)c2ccccc2)c1C#N (centres undefined), the melting point is reported as 68 to 72 °C.
